Results on twelve compounds are retold here after patent US20200069648A1, “HALOALLYLAMINE PYRAZOLE DERIVATIVE INHIBITORS OF LYSYL OXIDASES AND USES THEREOF” (Pharmaxis Ltd., priority 2017, published 2020).

Counter-ions that a name gives are not always drawn.

Assay [1] addresses T1, Human LOXL2 (Homo sapiens, UniProt Q9Y4K0).
T1 sequence (Q9Y4K0 26-774): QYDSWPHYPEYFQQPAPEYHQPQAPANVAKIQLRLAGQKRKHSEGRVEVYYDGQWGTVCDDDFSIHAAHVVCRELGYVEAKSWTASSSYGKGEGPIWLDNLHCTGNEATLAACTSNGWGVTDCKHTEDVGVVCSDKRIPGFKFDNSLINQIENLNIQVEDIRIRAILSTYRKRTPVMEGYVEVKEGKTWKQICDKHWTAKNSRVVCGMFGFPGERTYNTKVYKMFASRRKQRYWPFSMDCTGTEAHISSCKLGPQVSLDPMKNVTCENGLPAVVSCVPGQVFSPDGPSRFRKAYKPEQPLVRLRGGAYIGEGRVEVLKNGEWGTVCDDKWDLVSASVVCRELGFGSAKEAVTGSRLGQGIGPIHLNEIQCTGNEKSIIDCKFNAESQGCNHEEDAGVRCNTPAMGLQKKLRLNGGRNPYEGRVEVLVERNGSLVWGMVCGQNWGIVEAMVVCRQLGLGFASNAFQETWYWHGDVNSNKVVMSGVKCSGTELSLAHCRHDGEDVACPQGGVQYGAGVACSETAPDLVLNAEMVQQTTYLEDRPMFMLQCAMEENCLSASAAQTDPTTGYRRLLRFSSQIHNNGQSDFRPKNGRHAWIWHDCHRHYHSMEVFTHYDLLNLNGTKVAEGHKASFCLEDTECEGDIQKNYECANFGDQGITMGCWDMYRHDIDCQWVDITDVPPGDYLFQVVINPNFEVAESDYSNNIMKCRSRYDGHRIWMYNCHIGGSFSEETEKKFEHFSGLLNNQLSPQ
The experiment in a line: LOXL2 amine oxidase inhibition, peroxidase-coupled Amplex Red assay. The assay is classed as biochemical. Conditions: 30 min preincubation at 37° C., putrescine substrate. From the text:
(§1) Method to Determine the Ability of Compounds of the Invention to Inhibit LOX and LOXL1-4 from Different Sources
(§2) Lysyl oxidase (LOX) is an extracellular copper dependent enzyme which oxidizes peptidyl lysine and hydroxylysine residues in collagen and lysine residues in elastin to produce peptidyl alpha-aminoadipic-delta-semialdehydes. […] There are five LOX family members; these are LOX, LOXL1, LOXL2, LOXL3 and LOXL4. LOX and LOXL family members can be acquired as recombinant active proteins from commercial sources, or extracted from animal tissues like bovine aorta, tendons, pig skin; or prepared from cell cultures. The inhibitory effects of the compounds of the present invention were tested against the given LOX-LOXL preparation using a high-throughput coupled colorimetric method (Holt A. and Palcic M., A peroxidase-coupled continuous absorbance plate-reader assay for flavin monoamine oxidases, copper-containing amine oxidases and related enzymes. Nat. Protoc. 2006; 1: 2498-2505). The assay was developed using either 384 or 96 well format. Briefly, in a standard 384 well plate assay 25 μL of a dilution of any of the isoenzymes and orthologues in 1.2 M urea, 50 mM sodium borate buffer (pH 8.2) were added into each well in the presence of 1 μM mofegiline and 0.5 mM pargyline (to inhibit SSAO and MAO-B and MAO-A, respectively). Test compounds were dissolved in DMSO and tested in a Concentration Response Curve (CRC) with 11 data points, typically in the micromolar or nanomolar range after incubation with the enzyme for 30 min at 37° C. Twenty five μL of a reaction mixture containing twice the KM concentration of putrescine (Sigma Aldrich, e.g. 20 mM for LOX, or 10 mM for LOXL2 and LOXL3), 120 μM Amplex Red (Sigma Aldrich) and 1.5 U/mL horseradish peroxidase (Sigma Aldrich) prepared in 1.2 M urea, 50 mM sodium borate buffer (pH 8.2) were then added to the corresponding wells. The above volumes were doubled in the case of 96 wells plate. The fluorescence (RFU) was read every 2.5 min for 30 min at a range of temperatures from 37° to 45° C., excitation 565 nm and emission 590 (Optima; BMG labtech). The slope of the kinetics for each well was calculated using MARS data analysis software (BMG labtech) and this value was used to deduce the IC50 value (Dotmatics).

Assay [2] has as its target T2, Bovine LOX (Bos taurus, UniProt P33072).
T2 sequence (P33072 170-418): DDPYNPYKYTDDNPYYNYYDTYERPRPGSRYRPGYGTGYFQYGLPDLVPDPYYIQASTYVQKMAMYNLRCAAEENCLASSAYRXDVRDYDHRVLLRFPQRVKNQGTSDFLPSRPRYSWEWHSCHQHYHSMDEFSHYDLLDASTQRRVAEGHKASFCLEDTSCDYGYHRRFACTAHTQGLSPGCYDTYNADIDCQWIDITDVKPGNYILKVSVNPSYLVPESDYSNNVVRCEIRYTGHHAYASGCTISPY
The experiment in a line: LOX amine oxidase inhibition, peroxidase-coupled Amplex Red assay. The assay is classed as biochemical. Conditions: 30 min preincubation at 37° C., putrescine substrate.
From the text: as §1
as §2, with “Test compounds were dissolved in DMSO and tested in a Concentration Response Curve (CRC) with 11 data points, typically in the micromolar or nanomolar range after incubation with the enzyme for 30 min at 37° C.” left out

What is called IC50 is the point on the concentration scale where inhibition reaches its midpoint. Low values mean greater potency, high ones weaker potency. `Cc1c(Cc2ccc(S(=O)(=O)N(C)C)cc2)c(C(C)(C)C)nn1C/C(F)=C/CN` [Compound 50, (Z)-4-((1-(4-amino-2-fluorobut-2-en-1-yl)-3-(tert-butyl)-5-methyl-1H-pyrazol-4-yl)methyl)-N,N-dimethylbenzenesulfonamide hydrochloride]: the IC50 in assay [1] was under 1 µM; in assay [2], under 10 µM.

Take `Cc1nn(C/C(F)=C/CN)c(C)c1Cc1ccc(S(N)(=O)=O)c(Cl)c1` [Compound 51, (Z)-4-((1-(4-amino-2-fluorobut-2-en-1-yl)-3,5-dimethyl-1H-pyrazol-4-yl)methyl)-2-chlorobenzenesulfonamide hydrochloride]: the IC50 in assay [1] is under 1 µM; in assay [2], under 10 µM.

In the case of `Cc1nn(C/C(F)=C/CN)c(C(C)(C)O)c1Cc1ccc(S(=O)(=O)N(C)C)c(Cl)c1` [Compound 54, (Z)-4-((1-(4-amino-2-fluorobut-2-en-1-yl)-5-(2-hydroxypropan-2-yl)-3-methyl-1H-pyrazol-4-yl)methyl)-2-chloro-N,N-dimethylbenzenesulfonamide hydrochloride], the IC50 in assay [1] is over 1 µM; in assay [2], over 10 µM.

As for `Cc1nn(C/C(F)=C/CN)c(CO)c1Cc1ccc(S(=O)(=O)N(C)C)cc1Cl` [Compound 55, (Z)-4-((1-(4-amino-2-fluorobut-2-en-1-yl)-5-(hydroxymethyl)-3-methyl-1H-pyrazol-4-yl)methyl)-3-chloro-N,N-dimethylbenzenesulfonamide hydrochloride], the results for the IC50 in assay [1] and in assay [2] were under 1 µM and under 10 µM, respectively.

Regarding `Cc1nn(C/C(F)=C/CN)c(C(F)(F)F)c1Cc1ccc(S(=O)(=O)N(C)C)c(Cl)c1` [Compound 56, (Z)-4-((1-(4-amino-2-fluorobut-2-en-1-yl)-3-methyl-5-(trifluoromethyl)-1H-pyrazol-4-yl)methyl)-2-chloro-N,N-dimethylbenzenesulfonamide hydrochloride], the IC50 in assay [1] is under 1 µM; in assay [2] it was under 10 µM.

Turning to `Cc1c(Cc2ccc(S(=O)(=O)N(C)C)c(Cl)c2)c(C(F)(F)F)nn1C/C(F)=C/CN` [Compound 57, (Z)-4-((1-(4-amino-2-fluorobut-2-en-1-yl)-5-methyl-3-(trifluoromethyl)-1H-pyrazol-4-yl)methyl)-2-chloro-N,N-dimethylbenzenesulfonamide hydrochloride], the concentration for half-maximal inhibition (IC50) in assay [1] was under 1 µM; in assay [2], under 10 µM.

Take `CC(C)c1nn(C/C(F)=C/CN)c(C(C)O)c1Cc1ccc(S(=O)(=O)N(C)C)cc1Cl` (stereo not drawn) [Compound 58, (Z)-4-((1-(4-amino-2-fluorobut-2-en-1-yl)-5-(1-hydroxyethyl)-3-isopropyl-1H-pyrazol-4-yl)methyl)-3-chloro-N,N-dimethylbenzenesulfonamide hydrochloride]: the IC50 in assay [1] is under 1 µM; in assay [2], over 10 µM.

As to `Cc1nn(Cc2ccc(S(=O)(=O)N(C)C)c(Cl)c2)c(C(C)O)c1C/C(F)=C/CN` (stereo not drawn) [Compound 63, (Z)-4-((4-(4-amino-2-fluorobut-2-en-1-yl)-5-(l-hydroxyethyl)-3-methyl-1H-pyrazol-1-yl)methyl)-2-chloro-N,N-dimethylbenzenesulfonamide hydrochloride], the values for the IC50 in assay [1] and in assay [2] were under 1 µM and under 10 µM, respectively.

Regarding `CC(C)c1nn(Cc2ccc(S(=O)(=O)N(C)C)c(Cl)c2)c(C(C)C)c1C/C(F)=C/CN` [Compound 64, (Z)-4-((4-(4-amino-2-fluorobut-2-en-1-yl)-3,5-diisopropyl-1H-pyrazol-1-yl)methyl)-2-chloro-N,N-dimethylbenzenesulfonamide hydrochloride], the IC50 in assay [1] was under 1 µM; in assay [2], under 10 µM.

As for `Cc1nn(C/C(F)=C/CN)c(C(C)C)c1Cc1ccc(S(=O)(=O)N(C)C)c(Cl)c1` [Compound 65, (Z)-4-((1-(4-amino-2-fluorobut-2-en-1-yl)-5-isopropyl-3-methyl-1H-pyrazol-4-yl)methyl)-2-chloro-N,N-dimethylbenzenesulfonamide hydrochloride], the IC50 in assay [1] was under 1 µM; in assay [2], under 10 µM.

Regarding `Cc1c(Cc2ccc(S(=O)(=O)N(C)C)c(Cl)c2)c(C(C)C)nn1C/C(F)=C/CN` [Compound 66, (Z)-4-((1-(4-amino-2-fluorobut-2-en-1-yl)-3-isopropyl-5-methyl-1H-pyrazol-4-yl)methyl)-2-chloro-N,N-dimethylbenzenesulfonamide hydrochloride], the IC50 in assay [1] was under 1 µM; in assay [2], under 10 µM.

As for `CS(=O)(=O)c1cccc(-c2cnn(C/C(F)=C/CN)c2)c1` [Compound 67, (Z)-3-fluoro-4-(4-(3-(methylsulfonyl)phenyl)-1H-pyrazol-1-yl)but-2-en-1-amine hydrochloride], the figures for the IC50 in assay [1] and in assay [2] were under 1 µM and under 10 µM, respectively.
